Where two headings read alike, the source gives them in different places.
Columns and labels:
[1] = system: human breast cancer MCF7 cells; assay: In vitro cell viability assay (MTT), MCF7; assay type: cell-based
Experimental: [The source words this procedure for another cell line and reports this cell line under the same test.] The cell viability assay measures how effectively different compounds (i.e., different conjugates or structures) kill cancer cells in vitro. The IC50 value is the compound concentration at which the conjugate kills 50% of the cells, which inhibits 50% of the cells from remaining alive.
For the cell viability assay, the actual potency IC50 values depend on a number of factors, including the length of incubation time. Thus, the cell viability assay is particularly effective for determining the relative toxicity of different compounds.
(§1) Human glioblastoma cells (U87-luc) were seeded in 96-well plates ([…]) and were treated with the compounds of interest at concentrations 1, 3, 10, 30, and 100 µM. At the end of the experiments, the cell cultures were supplemented with MTT reagent (3-(4,5-dimethylthiazol-2-yl)-2,5-diphenyltetrazolium bromide) and incubated for an additional 4 hours. Then, dimethyl sulfoxide ([…]) was added to the cell culture to dissolve the formazan crystals and incubated for 10 minutes at room temperature. The absorbance rate of the cell cultures was read at 570 nm by using a Microplate Reader. All the reactions were performed in triplicate. Measured data of cellular proliferation were calculated using viability values of untreated control cells (100%).

[2] = system: human glioblastoma U87 cells; assay: In vitro cell viability assay (MTT), U87; assay type: cell-based; conditions: for cell viability result in words: U87 and MCF7 cells; for IC50: U87 cells
Experimental: The cell viability assay measures how effectively different compounds (i.e., different conjugates or structures) kill cancer cells in vitro.
For the cell viability assay, the actual potency IC50 values depend on a number of factors, including the length of incubation time.
as §1

[3] = system: integrin αvβ3 expressing U87 cells; assay: In vitro cell adhesion assay (U87 cells to fibrinogen); assay type: cell-based, human; conditions: 2 h, read-out: IC50, inhibition of cell adhesion to fibrinogen
Source text: The cell adhesion assay is a cell-based assay that measures how well different compounds (i.e., different conjugates or structures) block the adhesion of integrin αvβ3 expressing U87 cells to fibrinogen, a macromolecule that binds to the integrin αvβ3 receptor. The IC50 value is the compound concentration at which the compound displaces 50% of the cell adhesion to fibrinogen, which inhibits 50% of the cells from adhering to fibrinogen.
The cell adhesion assay is a functional cell assay, so the conjugates cannot be used with chemotherapy attached, because the conjugates will release the chemo over the course of the testing, killing the cells so that no readout can be obtained. Thus, the full conjugate molecule (targeting moiety, PEG, cleavable linker) is used without the chemo for this assay. Two compounds (conjugate 74 and conjugate 59) used are slightly different integrin αvβ3 targeting pieces with a large PEG (PEG 35 and PEG39, respectively), and the VCP cleavable linker attached. […]
96-well microtiter plates were coated with up to […] fibrinogen per well in […] phosphate-buffered saline (PBS) and incubated at 4° C. overnight. […] After washing with PBS, the fluorescence intensity of adherent cells was measured at an emission wavelength of 530 nm using an excitation wavelength of 485 nm by using a Microplate Reader.

integrin αvβ3 receptor = molecular target: T1, integrin αvβ3 receptor (Homo sapiens, UniProt P05106+P06756); assay: In vitro integrin αvβ3 binding assay; conditions: immobilized integrin αvβ3; read-out: IC50, displacement of labelled integrin αvβ3 ligand
T1 construct: purchased ACRO Biosystems (Newark, DE) and/or Bioss Inc (Woburn, MA)
T1 sequence (P06756 31-992 limits assumed): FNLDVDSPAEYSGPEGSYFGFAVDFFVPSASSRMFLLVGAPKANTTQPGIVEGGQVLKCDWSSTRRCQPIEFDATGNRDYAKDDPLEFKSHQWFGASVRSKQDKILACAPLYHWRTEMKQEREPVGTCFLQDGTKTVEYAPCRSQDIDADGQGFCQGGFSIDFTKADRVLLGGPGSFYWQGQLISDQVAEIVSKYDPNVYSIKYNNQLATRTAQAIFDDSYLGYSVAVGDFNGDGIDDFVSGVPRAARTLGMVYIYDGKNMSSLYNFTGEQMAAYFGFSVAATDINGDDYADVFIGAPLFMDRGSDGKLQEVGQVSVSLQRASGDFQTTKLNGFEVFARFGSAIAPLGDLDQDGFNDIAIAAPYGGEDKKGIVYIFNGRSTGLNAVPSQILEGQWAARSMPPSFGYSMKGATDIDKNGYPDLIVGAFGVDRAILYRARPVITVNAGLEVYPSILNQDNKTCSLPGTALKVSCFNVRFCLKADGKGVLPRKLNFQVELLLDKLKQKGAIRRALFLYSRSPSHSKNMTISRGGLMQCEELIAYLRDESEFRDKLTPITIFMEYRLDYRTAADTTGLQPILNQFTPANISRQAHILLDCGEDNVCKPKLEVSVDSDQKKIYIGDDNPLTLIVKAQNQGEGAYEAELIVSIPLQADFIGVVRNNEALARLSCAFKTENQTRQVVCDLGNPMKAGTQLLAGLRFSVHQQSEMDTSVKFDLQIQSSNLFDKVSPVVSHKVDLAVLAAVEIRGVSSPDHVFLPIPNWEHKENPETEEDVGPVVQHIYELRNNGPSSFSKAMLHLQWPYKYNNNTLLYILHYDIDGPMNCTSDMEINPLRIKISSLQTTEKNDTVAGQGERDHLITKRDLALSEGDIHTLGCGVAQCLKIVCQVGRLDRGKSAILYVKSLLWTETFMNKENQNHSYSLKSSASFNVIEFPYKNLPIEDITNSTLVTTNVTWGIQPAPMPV
T1 sequence (P05106 27-718 limits assumed): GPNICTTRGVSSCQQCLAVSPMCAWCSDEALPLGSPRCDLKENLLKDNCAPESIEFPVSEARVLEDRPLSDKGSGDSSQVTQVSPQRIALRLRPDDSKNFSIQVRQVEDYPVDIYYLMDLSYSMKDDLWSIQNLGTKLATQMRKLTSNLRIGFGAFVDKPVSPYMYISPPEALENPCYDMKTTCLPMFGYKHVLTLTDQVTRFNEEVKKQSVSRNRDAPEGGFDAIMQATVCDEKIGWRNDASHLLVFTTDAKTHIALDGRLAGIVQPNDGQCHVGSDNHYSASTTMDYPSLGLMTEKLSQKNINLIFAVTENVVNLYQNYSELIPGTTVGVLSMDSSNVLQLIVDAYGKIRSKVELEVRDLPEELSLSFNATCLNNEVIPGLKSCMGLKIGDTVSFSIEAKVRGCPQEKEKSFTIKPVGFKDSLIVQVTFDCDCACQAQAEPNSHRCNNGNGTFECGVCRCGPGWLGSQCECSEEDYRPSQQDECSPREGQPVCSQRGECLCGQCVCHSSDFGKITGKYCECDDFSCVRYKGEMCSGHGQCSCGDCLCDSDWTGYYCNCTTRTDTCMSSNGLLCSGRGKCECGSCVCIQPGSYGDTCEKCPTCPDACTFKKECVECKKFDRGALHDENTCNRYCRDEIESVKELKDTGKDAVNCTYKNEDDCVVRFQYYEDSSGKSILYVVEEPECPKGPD
Source text: The in vitro integrin αvβ3 binding assay measures the binding affinity for different compounds (i.e., different conjugates or structures) with immobilized integrin αvβ3 receptor. The IC50 value is the compound concentration at which the compound displaces 50% of a labelled integrin αvβ3 ligand from the integrin αvβ3 receptor, which inhibits 50% of the labelled integrin αvβ3 ligand from binding to the integrin αvβ3 receptor.
Ninety-six polystyrene microtiter plate was coated with fibrinogen and incubated at 4° C. overnight. The wells were blocked with 3% BSA for 2 hours at room temperature and were washed with buffer A (50 mM Tris/HCl, 100 mM NaCl, 1 mM CaCl2), 1 mM MgCl2, 1% BSA) three times. Integrins αvβ3 and increasing concentrations of the compound of interest were added and incubated for 2 hours at room temperature, and then wells were washed three times with buffer A and incubated with a streptavidin HRP conjugate (1:1000 in buffer A) for 1 hour at room temperature. Finally, wells were washed three times with buffer A and […] peroxidase substrate TMB was added, and the reaction was terminated after 30 minutes with 50 µL of 450 nm stop solution for TMB. Absorbance was determined at 450 nm with a Microplate Reader (Bio-Rad, Hercules, CA, USA). […]

[4] = Body weight of tumor-bearing mice (toxicity); assay type: in vivo; conditions: daily subcutaneous dosing; for toxicity indicated by body weight: 3 weeks; for average body weight: at conclusion of 3 weeks
Experimental: (§2) The animal model and treatment used a total of 50 Athymic Nude-Foxn1^nu male mice which were purchased from Envigo, Indianapolis, IN, USA. The mice were housed in a clean room under strict conditions. Under the approval of the Institutional Animal Care and Use Committee, all animal protocols were carried out in line with the National Institute of Health Guide for the Care and Use of Laboratory Animals. Once cells reached 70-80% confluency, the cells were collected and counted. About 2×10^6 CWR-R1ca-Luc cells were mixed in 1:1 Matrigel® Matrix (Life Sciences, Tewksbury, MA) and injected subcutaneously into the flank of each mouse. Measurement of tumor volume of prostate cancer tumors of mice and mice weights were taken biweekly. When a palpable tumor developed, size 300-500 mm^3, mice were randomized into 10 groups with 5 mice in each group. The corresponding treatment was injected subcutaneously every day per each group up to 3 weeks. Before starting the treatment, the mice were injected with luciferin 150 mg/kg intraperitoneally. After 20 minutes, the mice were anesthetized in an induction chamber using 2% isoflurane, and bioluminescence images were taken using IVIS® Lumina III In Vivo Imaging System (PerkinElmer, Boston, MA) as a base line. Before the end of the experiment, the imaging process was repeated for all mice groups.
(§3) All compounds were dosed at 0.5 mole of compound/kg mouse each day. Thus, a 20 g mouse was dosed at […] of compound per day, and larger mice were dosed at correspondingly higher doses in proportionality to mouse body weight. […] The concentration of each formulation was adjusted so that each dose would be 10 μL solution/g mouse.
FIG. 7 is a bar graph of average body weight of the mice at the conclusion of the study period of three weeks for conjugate 59, conjugate 61, conjugate 62, MMAE chemo, and PBS (control), in accordance with embodiments of the present invention. Average body weight changes over the course of the study relative to control, particularly due to loss of body weight, which can relate to toxicity of the treatment group.

CWR-R1ca-Luc cells = assay: In vivo efficacy, prostate cancer tumors in nude mice; conditions: for average prostate cancer tumor volume: 0.5 mole of compound/kg mouse each day, subcutaneous, 3 weeks; for IVIS average photons (viable tumor tissue) / average prostate cancer tumor weight: at conclusion of 3 weeks, daily subcutaneous dosing
Experimental: as §2, §3
FIGS. 4A, 4B, 5, 6 and 7 all pertain to the same experiment conducted with mice having prostate cancer over a study period of three weeks.

[5] = Solubility in PBS on formulation; assay type: physicochemical; conditions: formulation for dosing
Experimental: as §3

## CCc1c2c(nc3ccc(O)cc13)-c1cc3c(c(=O)n1C2)COC(=O)[C@@]3(CC)OC(=O)N(C)CCN(C)C(=O)OCc1ccc(NC(=O)[C@H](CCCNC(N)=O)NC(=O)[C@@H](NC(=O)CCc2cn(CCOCCOCCOCCOCCOCCOCCOCCOCCOCCOCCOCCOCCOCCOCCOCCOCCOCCOCCOCCOCCOCCOCCOCCOCCOCCOCCOCCOCCOCCOCCOCCOCCOCCOCCOCCOC)nn2)C(C)C)cc1 [conjugate 73]
[1]
  IC50: > 10000 nM
[2]
  cell viability result in words: no activity
  IC50: > 10000 nM

## CCc1c2c(nc3ccc(O)cc13)-c1cc3c(c(=O)n1C2)COC(=O)[C@]3(O)CC [SN38, reference compound]
[1]; Homo sapiens
  IC50: 5.67 nM
[2]; Homo sapiens, U-87 MG
  IC50: 4.32 nM

## Nc1ccn([C@@H]2O[C@H](CO)[C@@H](O)C2(F)F)c(=O)n1 [Gemcitabine, reference compound]
[1]; Homo sapiens
  IC50: 1790 nM

## CC(C)[C@H](NC(=O)CCc1cn(CCOCCOCCOCCOCCOCCOCCOCCOCCOCCOCCOCCOCCOCCOCCOCCOCCOCCOCCOCCOCCOCCOCCOCCOCCOCCOCCOCCOCCOCCOCCOCCOCCOCCOCCOCCNC(=O)CC[C@H](NS(=O)(=O)c2ccccc2)C(=O)O)nn1)C(=O)N[C@@H](CCCNC(N)=O)C(=O)Nc1ccc(CO)cc1 [conjugate 74]
[1]
  IC50: > 10000 nM
[3]
  IC50: 54 ± 2.2 nM
[2]
  cell viability result in words: does not cause cell death
  IC50: > 10000 nM

## CC(C)[C@H](NC(=O)CCOCCOCCOCc1cn(CCOCCOCCOCCOCCOCCOCCOCCOCCOCCOCCOCCOCCOCCOCCOCCOCCOCCOCCOCCOCCOCCOCCOCCOCCOCCOCCOCCOCCOCCOCCOCCOCCOCCOCCOCCOCCC(=O)NC[C@H](NS(=O)(=O)c2ccccc2)C(=O)O)nn1)C(=O)N[C@@H](CCCNC(N)=O)C(=O)Nc1ccc(CO)cc1 [conjugate 59]
[3]
  IC50: 103 ± 1.7 nM

## CC(C)[C@H](NC(=O)CCc1cn(CCOCCOCCOCCOCCOCCOCCOCCOCCOCCOCCOCCOCCOCCOCCOCCOCCOCCOCCOCCOCCOCCOCCOCCOCCOCCOCCOCCOCCOCCOCCOCCOCCOCCOCCOCCNC(=O)CC[C@H](NS(=O)(=O)c2ccccc2)C(=O)O)nn1)C(=O)N[C@@H](CCCNC(N)=O)C(=O)Nc1ccc(COC(=O)N2CCCC(c3ccc(-n4cc5cccc(C(N)=O)c5n4)cc3)C2)cc1 (some centres unmarked) [conjugate 40]
Integrin αvβ3 receptor
  IC50: 3.36 ± 0.22 nM
[2]
  IC50: 1740 nM

## CC(C)[C@H](NC(=O)CCc1cn(CCOCCOCCOCCOCCOCCOCCOCCOCCOCCOCCOCCOCCOCCOCCOCCOCCOCCOCCOCCOCCOCCOCCOCCOCCOCCOCCOCCOCCOCCOCCOCCOCCOCCOCCOCCNC(=O)CCC(NS(=O)(=O)c2ccccc2)C(=O)O)nn1)C(=O)N[C@@H](CCCNC(N)=O)C(=O)Nc1ccc(COC(=O)Nc2ccn([C@@H]3O[C@H](CO)C(O)C3(F)F)c(=O)n2)cc1 (some centres unmarked) [conjugate 45]
[1]
  IC50: 3970 nM
Integrin αvβ3 receptor
  IC50: 0.84 ± 0.16 nM

## NC(=O)c1cccc2cn(-c3ccc([C@@H]4CCCNC4)cc3)nc12 [Niraparib, reference compound]
[2]; Homo sapiens, U-87 MG
  IC50: 155 nM

## CC[C@H](C)[C@@H]([C@@H](CC(=O)N1CCC[C@H]1[C@H](OC)[C@@H](C)C(=O)N[C@H](C)[C@@H](O)c1ccccc1)OC)N(C)C(=O)[C@@H](NC(=O)[C@H](C(C)C)N(C)C(=O)OCc1ccc(NC(=O)[C@H](CCCNC(N)=O)NC(=O)[C@@H](NC(=O)CCOCCOCCOCc2cn(CCOCCOCCOCCOCCOCCOCCOCCOCCOCCOCCOCCOCCOCCOCCOCCOCCOCCOCCOCCOCCOCCOCCOCCOCCOCCOCCOCCOCCOCCOCCOCCOCCOCCOCCOCCOCCC(=O)NC[C@H](NS(=O)(=O)c3ccccc3)C(=O)O)nn2)C(C)C)cc1)C(C)C [conjugate 61]
[4]
  toxicity indicated by body weight: mild toxicity
  average body weight: only a small difference compared to the PBS control
CWR-R1ca-Luc cells
  average prostate cancer tumor volume: inhibits tumor growth more than the PEG15 conjugate 62
  IVIS average photons (viable tumor tissue): much smaller than the smaller PEG15 conjugate 62 and MMAE alone
  average prostate cancer tumor weight: comparable to the smaller PEG15 MMAE conjugate 62

## CC[C@H](C)[C@@H](C(CC(=O)N1CCC[C@H]1[C@H](OC)[C@@H](C)C(=O)N[C@H](C)[C@@H](O)c1ccccc1)OC)N(C)C(=O)[C@@H](NC(=O)[C@@H](NC)C(C)C)C(C)C (some centres unmarked) [MMAE, monomethylauristatin E, reference compound]
[1]; Homo sapiens
  IC50: 3.85 nM
[4]
  toxicity indicated by body weight: high toxicity
  average body weight: a loss of body weight over the course of the experiment
CWR-R1ca-Luc cells
  average prostate cancer tumor volume: smaller tumor volumes than the non-MMAE conjugate 59
  IVIS average photons (viable tumor tissue): smaller IVIS® numbers than the non-MMAE conjugate 59
  average prostate cancer tumor weight: smaller tumor weights than the non-MMAE conjugate 59
[5]
  solubility in straight PBS: less soluble in straight PBS
[2]; Homo sapiens, U-87 MG
  IC50: 2.51 nM

From patent US12624109B2, “αv-integrin targeted small molecule drug conjugates” (TargetThera LLC, priority 2023, dated 2026)
